The values below come from patent US8715749B2, “Products containing polyphenol(s) and L-arginine” (priority 1998, dated 2014).

Entries after “also recorded” stand apart in the source; their conditions may differ.

For test [1], the system named is Human umbilical vein endothelial cells (HUVEC). The test can be described thus: Nitric oxide production by HUVEC (nitrite in culture medium, Griess reaction). Type of test: cell-based. The conditions noted are these: for production of nitric oxide by HUVEC (in words): 48 hour incubation. As for the experimental part: The culture medium used was Medium 200 (Cascade Biologics Inc.) supplemented with Low Serum Growth Supplement (Cascade Biologics Inc.) and 20% fetal calf serum (DAP).
The cocoa procyanidins evaluated were the epicatechin monomer, the dimer, the trimer, the tetramer, the pentamer, and the heptamer. The nitrite content of cocoa procyanidins were evaluated. At the maximal concentration used (100 ? g/ml), no nitrite was detected.
Human umbilical vein endothelial cells (HUVEC) were purchased at primary culture stage from Cascade Biologics Inc. (Portland). Cells were cultured in Medium supplemented with Low Serum Growth Supplement (LSGS) and 20% Fetal Calf Serum (FCS) in 75 cm^2 flasks. The cells were seeded for a week following treatment with trypsin-EDTA (2 ml/flask) at 37° C. under 5% CO2 atmosphere. Trypsin was neutralized upon addition of 3 ml. FCS.
The cell suspension was centrifuged for 10 min. at 1200 rpm and the cell pellet was resuspended in the culture medium described above.
Nitric oxide synthase activity was assessed by measuring the nitrite concentration in the culture medium. HUVEC were used between passage 2 to 13. Cells were cultured in 24-well culture plates at the concentration of 5×10^5 cells ml in Medium 200 containing LSGS (300 μl per well), and 20% CS. After a 24 hour to 48 hour incubation period at 37° C. under a 5% CO2 atmosphere, the cells were used confluent (2.5×10^6 cells). Medium was removed and fresh was added.
Cocoa procyanidin monomer and oligomers were added to the culture medium at 100 μg/ml, 10 μg/ml or 1 μg/ml (final concentration). Controls consisted of cells cultured without the procyanidins. Reference compounds included acetylcholine, ionomycin (NO synthase stimulator via calcium entry), lipopolysaccharide (NO synthase inductor), and N-methyl L-arginine acetate (inhibitor of NO synthase). The reference compounds were used in order to evidence nitrite production from endothelial NO synthesis.
NO production was estimated by measurement of nitrite (NO2) concentration in culture supernatants according to the Griess reaction. Briefly, 50 μl of conditional medium were incubated with 150 μl of Griess reagent (1% sulfanilamide in 30% acetic acid/0.1% N-(1-naphtyl)-ethylenediamine dihydrochloride in 60% acetic acid) at room temperature for 2 min. The absorbance at 540 nm was determined in a Labsystems MCC/340 multiskan. Nitrite concentration was determined by using sodium nitrite as standard and analyzed using ΔSOFT 2.12 software. The cell-free medium and 100 μg/ml of procyanidins contained no detectable nitrite concentrations.
Raw Data^1: Showing the Effect of Cocoa Procyanidins On Nitric Oxide Production by HUVEC ^1Results are expressed as μmol nitrite/10^6 cells/48 h
Background: Griess reagent forms a coloured azo dye with nitrite.

Test [2] concerns Aortic rings from New Zealand white rabbits. The test can be described thus: Endothelium dependent relaxation of pre-contracted rabbit aortic rings in organ baths. As for the experimental part:
Aortic rings from New Zealand white rabbits were set up in 20 ml organ baths. […] The cocoa procyanidins tested were the monomer, dimer, trimer, tetramer, pentamer, hexamer.
Rings were incubated for 30′ with these cocoa procyanidins (10^−5M) and re-tested with Ach and cocoa procyanidins (10^−7 to 10^−4). Incubation of the tissue with these cocoa procyanadin(s) attenuated EDR evoked by both the cocoa procyanidins and Ach acutely. The maximum relaxation to Ach pre-incubation, 49±5%; post pentamer incubation, 2±1.4%; post combo 2 incubation, 0.8±0.8%: to pentamer pre-incubation, 46.5±4.5%; post incubation, 6.8±3.2%: to combo 2 pre-incubation, 54.3±7%; post incubation, 1.7±1.1%, n=5).

For test [3], the system named is arterial blood pressure of anesthetized guinea-pigs. The test can be described thus: Arterial blood pressure of anesthetized guinea-pigs after intravenous injection. The note with it: for Hypertension (%)* Exp 1 / Hypertension (%)* Exp 2 / Hypertension (%)* Exp 3 / Hypertension (%)* Exp 4 / Hypertension (%)* Exp 5 / Hypertension (%)* Exp 6: % of control mean arterial blood pressure. The format is in vivo. As for the experimental part:
Guinea-pigs (around 400 g body weight, male and female) were anesthetized upon injection of 40 mg/kg sodium pentobarbital. The carotid artery was canulated for monitoring of the arterial blood pressure through a Gould pressure transducer (Model P500). Each of the six cocoa procyanidins, at concentrations of 1, 3, 10, and 25 mg/kg, was injected intravenously through the jugular vein. Alterations in blood pressure were recorded on a polygraph.
No marked effect of the vehicle containing DMSO was noted when the dose of 25 mg/kg of the cocoa procyanidin was used (15±5%).
The effects of administering of 1, 3, 10, or 25 mg/kg cocoa procyanidins on arterial blood pressure of anesthetized guinea-pigs was investigated. Upon intravenous injection, the procyanidins monomer and dimer evoked a decrease in blood pressure of about 20%, i.e., not markedly different from injection of solvent alone (15±5%, n=5). […] The rank of potency of the various cocoa procyanidins, considering the highest dose used, was as follows: hexamer=tetramer>pentamer>trimer.

Where [4] appears, read: preliminary experiments, single dose 10^−5 M, rings pre-contracted with norepinephine 10^−5 M.

Regarding “lipopolysaccharide [LPS, reference compound]”, in test [1] (100 ng/ml), the “production of nitric oxide by HUVEC (in words)” value is given as “marked production of nitric oxide”. In addition, in test [1] (LPS 100 mg/ml), the “Nitric Oxide Production by HUVEC, Mean” value was 14.4 μmol nitrite/10^6 cells/48 h. For the same molecule, in test [1] (LPS 100), the “Nitric Oxide Production by HUVEC, Exp. 1” value was 15.6 μmol nitrite/10^6 cells/48 h; the “Nitric Oxide Production by HUVEC, Exp. 2” value is recorded as 14.3 μmol nitrite/10^6 cells/48 h; the “Nitric Oxide Production by HUVEC, Exp. 3” value is 13.2 μmol nitrite/10^6 cells/48 h.

On to `C[C@H](CCC(=O)O)C[C@H](C)C[C@H](C)C(=O)/C=C(\O)[C@H](C)C[C@H](C)C/C=C/[C@@H](C)[C@@H](O)[C@@H](C)[C@@H](O)C[C@@H]1CC[C@@](C)([C@H]2CC[C@@](C)([C@@H](C)O)O2)O1` [Ionomycin, ionomycin, reference compound], for which the “production of nitric oxide by HUVEC (in words)” value in test [1] (1 μM) was “marked production of nitric oxide”. Besides, in test [1] (Ionomycin 1 μM), the “Nitric Oxide Production by HUVEC, Exp. 1” value is on record as 7.8 μmol nitrite/10^6 cells/48 h; the “Nitric Oxide Production by HUVEC, Exp. 2” value is 6.3 μmol nitrite/10^6 cells/48 h; the “Nitric Oxide Production by HUVEC, Exp. 3” value is 5.4 μmol nitrite/10^6 cells/48 h; the “Nitric Oxide Production by HUVEC, Mean” value was 6.5 μmol nitrite/10^6 cells/48 h.

As to `CC(=O)OCC[N+](C)(C)C` [Acetylcholine, acetylcholine], in test [1] (Acetylcholine 10^−5 M), the “Nitric Oxide Production by HUVEC, Exp. 1” value is 2.5 μmol nitrite/10^6 cells/48 h; the “Nitric Oxide Production by HUVEC, Exp. 2” value is 2.6 μmol nitrite/10^6 cells/48 h; the “Nitric Oxide Production by HUVEC, Exp. 3” value is 2.8 μmol nitrite/10^6 cells/48 h; the “Nitric Oxide Production by HUVEC, Mean” value is 2.6 μmol nitrite/10^6 cells/48 h. Further, in test [2] (acute exposure, dose 10^−5 M), the “% Relaxation” value came out at 49 ± 5.1%. Further, in test [2] (acute exposure, dose 10^−6 M), the “% Relaxation” value came to 42.2 ± 4.2%. The “% Relaxation” value in test [2] (acute exposure, dose 10^−7 M) is reported as 15.2 ± 2.6%. Further, the “maximum relaxation to Ach” value in test [2] (pre-incubation, n=5) is on record as 49±5%. The “% Relaxation” value in test [2] (setting [4]) is reported as 68%.

As to `CC(=O)O.CN[C@@H](CCCNC(=N)N)C(=O)O` [LNMA, N-methyl L-arginine acetate, reference compound], the “production of nitric oxide by HUVEC evoked by ionomycin and lipolysaccharide (in words)” value in test [1] (N-methyl L-arginine added to the incubation medium) is “blocked”.

On to `Oc1cc(O)c2c(c1)O[C@H](c1ccc(O)c(O)c1)[C@H](O)C2` [Monomer, epicatechin], for which the “production of NO from HUVEC, dose dependence (in words)” value in test [1] (1, 10, 100 μg/ml) is “marked production but only at 100 μg/ml concentration”. Also, in test [1] (cocoa procyanidin 1 μg/ml), the “Nitric Oxide Production by HUVEC, Exp. 1” value is 2.3 μmol nitrite/10^6 cells/48 h; the “Nitric Oxide Production by HUVEC, Exp. 2” value is 2.5 μmol nitrite/10^6 cells/48 h; the “Nitric Oxide Production by HUVEC, Exp. 3” value is given as 2.6 μmol nitrite/10^6 cells/48 h; the “Nitric Oxide Production by HUVEC, Mean” value was 2.5 μmol nitrite/10^6 cells/48 h. In test [1] (cocoa procyanidin 10 μg/ml), the “Nitric Oxide Production by HUVEC, Exp. 1” value is reported as 2.7 μmol nitrite/10^6 cells/48 h; the “Nitric Oxide Production by HUVEC, Exp. 2” value is given as 2.8 μmol nitrite/10^6 cells/48 h; the “Nitric Oxide Production by HUVEC, Exp. 3” value is 2.6 μmol nitrite/10^6 cells/48 h; the “Nitric Oxide Production by HUVEC, Mean” value is 2.7 μmol nitrite/10^6 cells/48 h. In test [1] (cocoa procyanidin 100 μg/ml), the “Nitric Oxide Production by HUVEC, Exp. 1” value is on record as 5.4 μmol nitrite/10^6 cells/48 h; the “Nitric Oxide Production by HUVEC, Exp. 2” value is 5.9 μmol nitrite/10^6 cells/48 h; the “Nitric Oxide Production by HUVEC, Exp. 3” value is 5.7 μmol nitrite/10^6 cells/48 h; the “Nitric Oxide Production by HUVEC, Mean” value is listed as 5.7 μmol nitrite/10^6 cells/48 h. In test [1] (highest dose used, 100 μg/ml), the “potency of the various procyanidins, NO production (rank)” value is recorded as “dimer>trimer>heptamer=pentmer=tetramer>monomer; also recorded: dimer>trimer>hexamer=pentamer=tetramer>monomer”. In test [3] (1 mg/kg intravenously), the “Hypertension (%)* Exp 1” value is on record as 55.32%, the “Hypertension (%)* Exp 2” value is 70.31%, the “Hypertension (%)* Exp 3” value was 70.27% and the “Hypertension (%)* Exp 4” value is 75.99%. In test [3] (1 mg/kg intravenously), the “Hypertension (%)* Exp 5” value turned out to be 71.92% and the “Hypertension (%)* Exp 6” value came to 77.97%. In addition, in test [3] (3 mg/kg intravenously), the “Hypertension (%)* Exp 1” value is 62.99%, the “Hypertension (%)* Exp 2” value came to 72.62%, the “Hypertension (%)* Exp 3” value was determined as 74.59% and the “Hypertension (%)* Exp 4” value is 73.33%. Further, in test [3] (3 mg/kg intravenously), the “Hypertension (%)* Exp 5” value was determined as 76.04% and the “Hypertension (%)* Exp 6” value amounted to 70.44%. In test [3] (10 mg/kg intravenously), the “Hypertension (%)* Exp 1” value is 58.95%, the “Hypertension (%)* Exp 2” value is listed as 66.53%, the “Hypertension (%)* Exp 3” value was 70.06% and the “Hypertension (%)* Exp 4” value was determined as 65.79%. Moreover, in test [3] (10 mg/kg intravenously), the “Hypertension (%)* Exp 5” value was found to be 70.69% and the “Hypertension (%)* Exp 6” value was 66.21%. In addition, in test [3] (25 mg/kg intravenously), the “Hypertension (%)* Exp 1” value was found to be 46.93%, the “Hypertension (%)* Exp 2” value came to 55.14%, the “Hypertension (%)* Exp 3” value worked out at 63.08% and the “Hypertension (%)* Exp 4” value is given as 53.95%. Also, in test [3] (25 mg/kg intravenously), the “Hypertension (%)* Exp 5” value turned out to be 65.91% and the “Hypertension (%)* Exp 6” value was determined as 58.66%. Moreover, in test [3] (considering the highest dose used), the “rank of potency of the various cocoa procyanidins, hypotension” value is on record as “hexamer=tetramer>pentamer>trimer>dimer=monomer”. In addition, the “decrease in blood pressure” value in test [3] (intravenous injection, solvent alone 15±5%) was “about 20%”. In addition, the “% Relaxation” value in test [2] (setting [4]) was 0%.
